Laboratory results: patent US9441012B2, “Fluorinated epoxyketone-based compounds and uses thereof as proteasome inhibitors” (FLUORINOV PHARMA INC., priority 2012, dated 2016)

What was measured:
Assay in all cases: NCI 60 human tumor cell line screen (SRB)
Type in all cases: cell-based
TK-10 = TK-10 (Renal Cancer); 48 h
Description: (§1) Representative compounds of Formula I were screened using the National Cancer Institute (NCI) screening panel, which consists of a panel of 60 different human tumor cell lines, representing leukemia [CCRF-CEM, HL-60 (TB), K-562, MOLT-4, SR], melanoma [LOX IMVI, MALME-3M, M14, SMDA-MB-435, SK-MEL-2, SK-MEL-28, SK-MEL-5, UACC-257 and UACC-62] and cancers of the lung [A549/ATCC, EKVX, HOP-62, HOP-93, NCI-H226, NCI-H23, NCI-H322M, NCI-H460], colon [COLO 205, HCT-116, HCT-15, HT29, KM12, SW-620], brain [SF-268, SF-295, SF-539, SNB-19, SNB-75, U251], ovary [IGROV1, OVCAR-3, OVCAR-4, OVCAR-5, OVCAR-8, NCI/ADR-RES, SK-OV-3], breast [MCF7, MDA-MB-231, BT-549, T-47D, MDA-MB-468], prostate [PC-3, DU-145], and renal[786-0, A498, ACHN, CAKI-1, RXF-393, SN12C, TK-10, UO-31] cancers.
(§2) After 24 h, two plates of each cell line are fixed in situ with TCA, to represent a measurement of the cell population for each cell line at the time of drug addition (Tz). Experimental drugs are solubilised in dimethyl sulfoxide at 400-fold the desired final maximum test concentration and stored frozen prior to use. At the time of drug addition, an aliquot of frozen concentrate is thawed and diluted to twice the desired final maximum test concentration with complete medium containing 50 μg/ml gentamicin. Additional four, 10-fold or ½ log serial dilutions are made to provide a total of five drug concentrations plus control. Aliquots of 100 μl of these different drug dilutions are added to the appropriate microtiter wells already containing 100 μl of medium, resulting in the required final drug concentrations.
(§3) Following drug addition, the plates are incubated for an additional 48 h at 37° C., 5% CO2, 95% air, and 100% relative humidity. For adherent cells, the assay is terminated by the addition of cold TCA (trichloroacetic acid). Cells are fixed in situ by the gentle addition of 50 μl of cold 50% (w/v) TCA (final concentration, 10% TCA) and incubated for 60 minutes at 4° C. The supernatant is discarded, and the plates are washed five times with tap water and air dried. Sulforhodamine B (SRB) solution (100 μl) at 0.4% (w/v) in 1% acetic acid is added to each well, and plates are incubated for 10 minutes at room temperature. After staining, unbound dye is removed by washing five times with 1% acetic acid and the plates are air dried. Bound stain is subsequently solubilised with 10 mM trizma base, and the absorbance is read on an automated plate reader at a wavelength of 515 nm. For suspension cells, the methodology is the same except that the assay is terminated by fixing settled cells at the bottom of the wells by gently adding 50 μl of 80% TCA (final concentration, 16% TCA). Using the seven absorbance measurements [time zero, (Tz), control growth, (C), and test growth in the presence of drug at the five concentration levels (Ti)], the percentage growth is calculated at each of the drug concentration levels. Percentage growth inhibition is calculated as: [(Ti−Tz)/(C−Tz)]×100 for concentrations in which Ti>/=Tz and [(Ti−Tz)/Tz]×100 for concentrations in which Ti<Tz.
(§4) Three dose response parameters are calculated for each experimental agent. Growth inhibition of 50% (GI50) is calculated from [(Ti−Tz)/(C−Tz)]100=50, which is the drug concentration resulting in a 50% reduction in the net protein increase (as measured by SRB staining) in control cells during the drug incubation. The drug concentration resulting in total growth inhibition (TGI) is calculated from Ti=Tz. The LC50 (concentration of drug resulting in a 50% reduction in the measured protein at the end of the drug treatment as compared to that at the beginning) indicating a net loss of cells following treatment is calculated from [(Ti−Tz)/Tz]×100=−50. Values are calculated for each of these three parameters if the level of activity is reached. However, if the effect is not reached or is exceeded, the value for that parameter is expressed as greater or less than the maximum or minimum concentration tested.

KM12 = KM12 (Colon Cancer); 48 h
Description: as §1, §2, §3, §4

DU-145 = DU-145 (Prostate Cancer); 48 h
Description: as §1, §2, §3, §4

SF-268 = SF-268 (CNS Cancer); 48 h
Description: as §1, §2, §3, §4

NCI/ADR-RES = NCI/ADR-RES (Ovarian Cancer); 48 h
Description: as §1, §2, §3, §4

SW-620 = SW-620 (Colon Cancer); 48 h
Description: as §1, §2, §3, §4

PC-3 = PC-3 (Prostate Cancer); 48 h
Description: as §1, §2, §3, §4

786-0 = 786-0 (Renal Cancer); 48 h
Description: as §1, §2, §3, §4

MDA-MB-468 = MDA-MB-468 (Breast Cancer); 48 h
Description: as §1, §2, §3, §4

HOP-92 = HOP-92 (Non-Small Cell Lung Cancer); 48 h
Description: as §1, §2, §3, §4

UACC-257 = UACC-257 (Melanoma); 48 h
Description: as §1, §2, §3, §4

IGROV1 = IGROV1 (Ovarian Cancer); 48 h
Description: as §1, §2, §3, §4

SMILES	Log10GI50 (TK-10)	Log10TGI50 (TK-10)	Log10GI50 (KM12)	Log10LC50 (KM12)	Log10TGI50 (KM12)	Log10GI50 (DU-145)	Log10LC50 (DU-145)	Log10TGI50 (DU-145)	Log10GI50 (SF-268)	Log10LC50 (SF-268)	Log10TGI50 (SF-268)	Log10GI50 (NCI/ADR-RES)	Log10LC50 (NCI/ADR-RES)	Log10TGI50 (NCI/ADR-RES)	Log10GI50 (SW-620)	Log10LC50 (SW-620)	Log10TGI50 (SW-620)	Log10GI50 (PC-3)	Log10LC50 (PC-3)	Log10TGI50 (PC-3)	also measured
Cc1ncc(C(=O)N[C@@H](COC(F)F)C(=O)N[C@@H](COC(F)F)C(=O)N[C@@H](Cc2ccccc2)C(=O)[C@@]2(C)CO2)s1 [Example 1, 2-methyl-thiazole-5-carboxylic acid ((S)-1-{(S)-1-[(S)-1-benzyl-2-((R)-2-methyloxiranyl)-2-oxo-ethylcarbamoyl]-2-difluoromethoxyethylcarbamoyl}-2-difluoromethoxyethyl)-amide]	−6.71	−6.06	−6.88	−6.10	−6.49	−6.58	−5.02	−5.64	−6.98	>−4.00	−5.90	−5.11	>−4.00	−4.23	−7.39	−4.40	−5.95	−6.48	>−4.00	−4.99	Log10GI50 (786-0): −6.43; Log10LC50 (786-0): >−4.00; Log10TGI50 (786-0): −4.62; Log10GI50 (MDA-MB-468): −6.75; Log10TGI50 (MDA-MB-468): −6.32; Log10GI50 (HOP-92): −6.23; Log10LC50 (HOP-92): −4.39; Log10TGI50 (HOP-92): −5.40; Log10GI50 (UACC-257): −6.87; Log10LC50 (UACC-257): >−4.00; Log10TGI50 (UACC-257): −6.20
CC(C)C[C@H](NC(=O)[C@H](Cc1ccccc1)NC(=O)[C@H](COC(F)F)NC(=O)CN1CCOCC1)C(=O)[C@@]1(C)CO1 [Example 25, (2S)-2-[[(2S)-3-(difluoromethoxy)-2-[(2-morpholinoacetyl)amino]propanoyl]amino]-N-[(1S)-3-methyl-1-[(2R)-2-methyloxirane-2-carbonyl]butyl]-3-phenyl-propanamide]	−7.49	−6.07	−7.72	−7.06	−7.39	−7.27	>−4.00	−5.32	−7.60	>−4.00	−7.14	−5.82	>−4.00	>−4.00	−7.41	>−4.00	−5.93	−7.45	−5.14	−6.80	Log10LC50 (TK-10): >−4.00; Log10GI50 (IGROV1): −7.43; Log10LC50 (IGROV1): >−4.00; Log10TGI50 (IGROV1): −6.38; Log10GI50 (786-0): −7.20; Log10LC50 (786-0): −5.44; Log10TGI50 (786-0): −6.49; Log10GI50 (MDA-MB-468): −7.54; Log10LC50 (MDA-MB-468): >−4.00; Log10TGI50 (MDA-MB-468): −6.96; Log10GI50 (HOP-92): −7.65; Log10LC50 (HOP-92): −6.35; Log10TGI50 (HOP-92): −7.16; Log10GI50 (UACC-257): −7.18; Log10LC50 (UACC-257): >−4.00; Log10TGI50 (UACC-257): −6.32
C[C@]1(C(=O)[C@H](Cc2ccccc2)NC(=O)[C@H](COC(F)F)NC(=O)[C@H](COC(F)F)NC(=O)CN2CCOCC2)CO1 [Example 26, (S)-N-{(S)-1-[(S)-1-Benzyl-2-((R)-2-methyl-oxiranyl)-2-oxo-ethylcarbamoyl]-2-difluoromethoxyethyl}-3-difluoromethoxy-2-(2-morpholin-4-yl-acetylamino)-propio-namide]	−7.49	−6.07	−7.72	−7.06	−7.39	−7.27	>−4.00	−5.32	−7.60	>−4.00	−7.14	−5.82	>−4.00	>−4.00	−7.41	>−4.00	−5.93	−7.45	−5.14	−6.80	Log10LC50 (TK-10): >−4.00; Log10GI50 (IGROV1): −7.43; Log10LC50 (IGROV1): >−4.00; Log10GI50 (786-0): −7.20; Log10LC50 (786-0): −5.44; Log10TGI50 (786-0): −6.49; Log10GI50 (MDA-MB-468): −7.54; Log10LC50 (MDA-MB-468): >−4.00; Log10TGI50 (MDA-MB-468): −6.96; Log10GI50 (HOP-92): −7.65; Log10LC50 (HOP-92): −6.35; Log10TGI50 (HOP-92): −7.16; Log10GI50 (UACC-257): −7.18; Log10LC50 (UACC-257): >−4.00; Log10TGI50 (UACC-257): −6.32
